{"source": "patent US20100272789A1", "about": "“EXTERNAL MEDICINE FOR TREATMENT OR PREVENTION” (priority 2007, published 2010)", "origin": "cited, not measured here", "details": "20 degrees Celsius at 1 atm"}
{"smiles": "[HH]", "note": "[hydrogen molecules, hydrogen]", "values": [{"measurement": "solubility of hydrogen molecules into water", "result": 1.6, "unit": "µg/mL"}]}
